# Reference: patent US20230019236A1, “PROTEIN TYROSINE PHOSPHATASE INHIBITORS AND METHODS OF USE THEREOF” (Calico Life Sciences LLC, priority 2019, published 2023)
# Molecular target: T1, His tagged full-length PTP1B protein (Homo sapiens, UniProt P18031)
# T1 construct: made in house
# T1 sequence (P18031 with tags, fused parts or gaps): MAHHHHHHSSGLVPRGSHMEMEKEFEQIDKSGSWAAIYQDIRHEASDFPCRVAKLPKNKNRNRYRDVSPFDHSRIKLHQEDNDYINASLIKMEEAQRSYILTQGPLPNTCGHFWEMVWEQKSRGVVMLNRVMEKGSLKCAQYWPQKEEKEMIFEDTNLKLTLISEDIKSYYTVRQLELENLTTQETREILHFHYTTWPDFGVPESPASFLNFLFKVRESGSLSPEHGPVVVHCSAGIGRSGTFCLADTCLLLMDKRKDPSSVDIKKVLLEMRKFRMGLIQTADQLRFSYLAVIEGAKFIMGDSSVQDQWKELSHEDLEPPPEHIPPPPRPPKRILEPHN
# Test: Mobility Shift Assay (MSA) used to determine potency of PTP1B inhibitors
# Type: biochemical
# Details: Table 2
# Procedure: The enzymatic assay used to determine activity is a mobility shift assay using a LabChip EZ Reader by Caliper Life Sciences. The enzymatic reaction was carried out in assay buffer (50 mM HEPES pH 7.5, 1 mM EGTA, 10 mM EDTA, 0.01% Tween® 20, and 2 mM DTT). […] The enzyme (at 0.5 nM) was incubated with compound for 10 minutes at room temperature. […] The % inhibition was then used to calculate the IC50 values.
row,SMILES,IC50
1,"COc1ccc2c(Cl)c(O)c(N3CC(=O)NS3(=O)=O)c(F)c2c1 [Compound 238, 5-(4-chloro-1-fluoro-3-hydroxy-7-methoxynaphthalen-2-yl)-1λ^6,2,5-thiadiazolidine-1,1,3-trione]",> 100 nM
2,"CNC(=O)CCCOc1ccc2cc(O)c(N3CC(=O)NS3(=O)=O)c(F)c2c1 [Compound 269, 4-{[8-fluoro-6-hydroxy-7-(1,1,4-trioxo-1λ^6,2,5-thiadiazolidin-2-yl)naphthalen-2-yl]oxy}—N-methylbutanamide]",1 to 10 nM
3,"CC(C)NCCOc1ccc2cc(O)c(N3CC(=O)NS3(=O)=O)c(F)c2c1 [Compound 145, 5-(1-fluoro-3-hydroxy-7-{2-[(propan-2-yl)amino]ethoxy}naphthalen-2-yl)-1λ^6,2,5-thiadiazolidine-1,1,3-trione]",10 to 100 nM
4,"CS(=O)(=O)N1CC(Nc2ccc3cc(O)c(N4CC(=O)NS4(=O)=O)c(F)c3c2)C1 [Compound 128, 5-(1-fluoro-3-hydroxy-7-{[1-(methanesulfonyl)azetidin-3-yl]amino}naphthalen-2-yl)-1λ^6,2,5-thiadiazolidine-1,1,3-trione]",1 to 10 nM
5,"O=C1CN(c2c(O)cc3ccc(C4=CCN(S(=O)(=O)C5CC5)CC4)cc3c2F)S(=O)(=O)N1 [Compound 297, 5-{7-[1-(cyclopropanesulfonyl)-1,2,3,6-tetrahydropyridin-4-yl]-1-fluoro-3-hydroxynaphthalen-2-yl}-1λ^6,2,5-thiadiazolidine-1,1,3-trione]",1 to 10 nM
6,"O=C1CN(c2c(O)cc3ccc(OC4CC4)cc3c2F)S(=O)(=O)N1 [Compound 223, 5-[7-(cyclopropyloxy)-1-fluoro-3-hydroxynaphthalen-2-yl]-1λ^6,2,5-thiadiazolidine-1,1,3-trione]",1 to 10 nM
7,"C[C@H](O)CCCc1ccc2cc(O)c(N3CC(=O)NS3(=O)=O)c(F)c2c1 [Compound 153, 5-{1-fluoro-3-hydroxy-7-[(4S)-4-hydroxypentyl]naphthalen-2-yl}-1λ^6,2,5-thiadiazolidine-1,1,3-trione]",1 to 10 nM
8,"CC(C)CCS(=O)(=O)N1CC=C(c2ccc3cc(O)c(N4CC(=O)NS4(=O)=O)c(F)c3c2)C1 [Compound 313, 5-{1-fluoro-3-hydroxy-7-[1-(3-methylbutane-1-sulfonyl)-2,5-dihydro-1H-pyrrol-3-yl]naphthalen-2-yl}-1λ^6,2,5-thiadiazolidine-1,1,3-trione]",< 1 nM
9,"O=C1CN(c2c(O)cc3ccc(OCc4cn[nH]c4)cc3c2F)S(=O)(=O)N1 [Compound 133, 5-{1-fluoro-3-hydroxy-7-[(1H-pyrazol-4-yl)methoxy]naphthalen-2-yl}-1λ6,2,5-thiadiazolidine-1,1,3-trione]",1 to 10 nM
10,"[2H]C1([2H])C(=O)NS(=O)(=O)N1c1c(O)cc2ccc(OC)cc2c1F [Compound 123, 5-(1-fluoro-3-hydroxy-7-methoxynaphthalen-2-yl)(4,4-^2H2)-1λ^6,2,5-thiadiazolidine-1,1,3-trione]",1 to 10 nM
11,"O=C1CN(c2c(O)cc3ccc(OCCNCCOC(F)(F)F)cc3c2F)S(=O)(=O)N1 [Compound 137, 5-[1-fluoro-3-hydroxy-7-(2-{[2-(trifluoromethoxy)ethyl]amino}ethoxy)naphthalen-2-yl]-1λ^6,2,5-thiadiazolidine-1,1,3-trione]",1 to 10 nM
12,"O=C1CN(c2c(O)cc3ccc(OCC(=O)N4CCCC4)cc3c2F)S(=O)(=O)N1 [Compound 283, 5-{1-fluoro-3-hydroxy-7-[2-oxo-2-(pyrrolidin-1-yl)ethoxy]naphthalen-2-yl}-1λ^6,2,5-thiadiazolidine-1,1,3-trione]",10 to 100 nM
13,"O=C(COc1ccc2cc(O)c(N3CC(=O)NS3(=O)=O)c(F)c2c1)NCCC1CC1 [Compound 281, N-(2-cyclopropylethyl)-2-{[8-fluoro-6-hydroxy-7-(1,1,4-trioxo-1λ^6,2,5-thiadiazolidin-2-yl)naphthalen-2-yl]oxy}acetamide]",10 to 100 nM
14,"CC(C)CNc1ccc2cc(O)c(N3CC(=O)NS3(=O)=O)c(F)c2c1 [Compound 201, 5-{1-fluoro-3-hydroxy-7-[(2-methylpropyl)amino]naphthalen-2-yl}-1λ^6,2,5-thiadiazolidine-1,1,3-trione]",1 to 10 nM
15,"O=C1CN(c2c(O)cc3ccc(OCCO)cc3c2F)S(=O)(=O)N1 [Compound 277, 5-[1-fluoro-3-hydroxy-7-(2-hydroxyethoxy)naphthalen-2-yl]-1λ^6,2,5-thiadiazolidine-1,1,3-trione]",> 100 nM
16,"O=C1CN(c2c(O)cc3ccc(OCC4CCNCC4)cc3c2F)S(=O)(=O)N1 [Compound 114, 5-{1-fluoro-3-hydroxy-7-[(piperidin-4-yl)methoxy]naphthalen-2-yl}-1λ^6,2,5-thiadiazolidine-1,1,3-trione]",1 to 10 nM

row,SMILES,IC50
1,"N#Cc1c[nH]c(-c2ccc3cc(O)c(N4CC(=O)NS4(=O)=O)c(F)c3c2)n1 [Compound 321, 2-[8-fluoro-6-hydroxy-7-(1,1,4-trioxo-1λ^6,2,5-thiadiazolidin-2-yl)naphthalen-2-yl]-1H-imidazole-4-carbonitrile]",1 to 10 nM
2,"COCCCOc1ccc2cc(O)c(N3CC(=O)NS3(=O)=O)c(F)c2c1 [Compound 247, 5-[1-fluoro-3-hydroxy-7-(3-methoxypropoxy)naphthalen-2-yl]-1λ^6,2,5-thiadiazolidine-1,1,3-trione]",1 to 10 nM
3,"O=C1CN(c2c(O)cc3ccc(C4=CCN(CC(F)(F)F)CC4)cc3c2F)S(=O)(=O)N1 [Compound 275, 5-{1-fluoro-3-hydroxy-7-[1-(2,2,2-trifluoroethyl)-1,2,3,6-tetrahydropyridin-4-yl]naphthalen-2-yl}-1λ^6,2,5-thiadiazolidine-1,1,3-trione]",10 to 100 nM
4,"COc1ccc2cc(O)c(N3CC(=O)NS3(=O)=O)c(F)c2c1F [Compound 205, 5-(1,8-difluoro-3-hydroxy-7-methoxynaphthalen-2-yl)-1λ^6,2,5-thiadiazolidine-1,1,3-trione]",10 to 100 nM
5,"CC(C)C/C=C/c1ccc2cc(O)c(N3CC(=O)NS3(=O)=O)c(F)c2c1 [Compound 240, 5-{1-fluoro-3-hydroxy-7-[(1E)-4-methylpent-1-en-1-yl]naphthalen-2-yl}-1λ^6,2,5-thiadiazolidine-1,1,3-trione]",1 to 10 nM
6,"CCOCCOc1ccc2cc(O)c(N3CC(=O)NS3(=O)=O)c(F)c2c1 [Compound 246, 5-[7-(2-ethoxyethoxy)-1-fluoro-3-hydroxynaphthalen-2-yl]-1λ^6,2,5-thiadiazolidine-1,1,3-trione]",> 100 nM
7,"Nc1ccccc1CS(=O)(=O)N1CC=C(c2ccc3cc(O)c(N4CC(=O)NS4(=O)=O)c(F)c3c2)C1 [Compound 195, 5-(7-{1-[(2-aminophenyl)methanesulfonyl]-2,5-dihydro-1H-pyrrol-3-yl}-1-fluoro-3-hydroxynaphthalen-2-yl)-1λ^6,2,5-thiadiazolidine-1,1,3-trione]",1 to 10 nM
8,"O=C1CN(c2c(O)cc3ccc(OCC(F)(F)F)cc3c2F)S(=O)(=O)N1 [Compound 197, 5-[1-fluoro-3-hydroxy-7-(2,2,2-trifluoroethoxy)naphthalen-2-yl]-1λ^6,2,5-thiadiazolidine-1,1,3-trione]",> 100 nM
9,"O=C1CN(c2c(O)cc3ccc(CNCC4CC4)cc3c2F)S(=O)(=O)N1 [Compound 161, 5-(7-{[(cyclopropylmethyl)amino]methyl}-1-fluoro-3-hydroxynaphthalen-2-yl)-1λ^6,2,5-thiadiazolidine-1,1,3-trione]",10 to 100 nM
10,"N#CC1(CCOc2ccc3cc(O)c(N4CC(=O)NS4(=O)=O)c(F)c3c2)CC1 [Compound 159, 1-(2-{[8-fluoro-6-hydroxy-7-(1,1,4-trioxo-1λ^6,2,5-thiadiazolidin-2-yl)naphthalen-2-yl]oxy}ethyl)cyclopropane-1-carbonitrile]",1 to 10 nM
11,"O=C1CN(c2c(O)cc3ccc(C4=CCN(S(=O)(=O)CCCC(F)(F)F)C4)cc3c2F)S(=O)(=O)N1 [Compound 290, 5-{1-fluoro-3-hydroxy-7-[1-(4,4,4-trifluorobutane-1-sulfonyl)-2,5-dihydro-1H-pyrrol-3-yl]naphthalen-2-yl}-1λ^6,2,5-thiadiazolidine-1,1,3-trione]",< 1 nM
12,"CCS(=O)(=O)NCCOc1ccc2cc(O)c(N3CC(=O)NS3(=O)=O)c(F)c2c1 [Compound 311, N-(2-{[8-fluoro-6-hydroxy-7-(1,1,4-trioxo-1λ^6,2,5-thiadiazolidin-2-yl)naphthalen-2-yl]oxy}ethyl)ethanesulfonamide]",1 to 10 nM
13,"O=C1CN(c2c(O)cc3ccc(OCC(F)F)cc3c2F)S(=O)(=O)N1 [Compound 302, 5-[7-(2,2-difluoroethoxy)-1-fluoro-3-hydroxynaphthalen-2-yl]-1λ^6,2,5-thiadiazolidine-1,1,3-trione]",10 to 100 nM
14,"CC(C)(CC#N)CCOc1ccc2cc(O)c(N3CC(=O)NS3(=O)=O)c(F)c2c1 [Compound 115, 5-{[8-fluoro-6-hydroxy-7-(1,1,4-trioxo-1λ^6,2,5-thiadiazolidin-2-yl)naphthalen-2-yl]oxy}-3,3-dimethylpentanenitrile]",1 to 10 nM
15,"O=C1CN(c2c(O)cc3ccc(OCCOCC4CC4)cc3c2F)S(=O)(=O)N1 [Compound 212, 5-{7-[2-(cyclopropylmethoxy)ethoxy]-1-fluoro-3-hydroxynaphthalen-2-yl}-1λ^6,2,5-thiadiazolidine-1,1,3-trione]",1 to 10 nM
